Assay results taken from PubChem BioAssay (NCI).
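Compound exposure: 48 hours, 5 concentrations, 96-well plates. TGI: total growth inhibition.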

Tests used:
Assay in all cases: NCI tumour cell line growth inhibition, 48 h
786-0 renal = tested on: 786-0 renal
A498 renal = tested on: A498 renal
A549 NSCLC = tested on: A549 NSCLC
ACHN renal = tested on: ACHN renal
BT-549 breast = tested on: BT-549 breast
CAKI-1 renal = tested on: CAKI-1 renal
CCRF-CEM leukemia = tested on: CCRF-CEM leukemia
COLO 205 colon = tested on: COLO 205 colon
DU-145 prostate = tested on: DU-145 prostate
EKVX NSCLC = tested on: EKVX NSCLC
HCC-2998 colon = tested on: HCC-2998 colon
HCT-116 colon = tested on: HCT-116 colon
HCT-15 colon = tested on: HCT-15 colon
HL-60(TB) leukemia = tested on: HL-60(TB) leukemia
HOP-62 NSCLC = tested on: HOP-62 NSCLC
HOP-92 NSCLC = tested on: HOP-92 NSCLC
HS 578T breast = tested on: HS 578T breast
HT29 colon = tested on: HT29 colon
IGROV1 ovarian = tested on: IGROV1 ovarian
K-562 leukemia = tested on: K-562 leukemia
KM12 colon = tested on: KM12 colon
LOX IMVI melanoma = tested on: LOX IMVI melanoma
M14 melanoma = tested on: M14 melanoma
MCF7 breast = tested on: MCF7 breast
MDA-MB-231 breast = tested on: MDA-MB-231 breast
MDA-MB-435 = tested on: MDA-MB-435
MDA-N = tested on: MDA-N
MOLT-4 leukemia = tested on: MOLT-4 leukemia
NCI-H226 lung = tested on: NCI-H226 lung
NCI-H23 lung = tested on: NCI-H23 lung
NCI-H460 lung = tested on: NCI-H460 lung
NCI-H522 lung = tested on: NCI-H522 lung
NCI/ADR-RES ovarian = tested on: NCI/ADR-RES ovarian
OVCAR-3 ovarian = tested on: OVCAR-3 ovarian
OVCAR-4 ovarian = tested on: OVCAR-4 ovarian
OVCAR-5 ovarian = tested on: OVCAR-5 ovarian
OVCAR-8 ovarian = tested on: OVCAR-8 ovarian
PC-3 prostate = tested on: PC-3 prostate
RPMI-8226 leukemia = tested on: RPMI-8226 leukemia
RXF 393 renal = tested on: RXF 393 renal
SF-268 CNS = tested on: SF-268 CNS
SF-295 CNS = tested on: SF-295 CNS
SK-MEL-2 melanoma = tested on: SK-MEL-2 melanoma
SK-MEL-28 melanoma = tested on: SK-MEL-28 melanoma
SK-MEL-5 melanoma = tested on: SK-MEL-5 melanoma
SK-OV-3 ovarian = tested on: SK-OV-3 ovarian
SNB-19 CNS = tested on: SNB-19 CNS
SNB-75 CNS = tested on: SNB-75 CNS
SW-620 colon = tested on: SW-620 colon
TK-10 renal = tested on: TK-10 renal
U251 CNS = tested on: U251 CNS
UACC-257 melanoma = tested on: UACC-257 melanoma
UACC-62 melanoma = tested on: UACC-62 melanoma
UO-31 renal = tested on: UO-31 renal

Structure (SMILES): COc1cc(NS(C)(=O)=O)ccc1N1Cc2cnc3ccc4[nH]c(C)cc1c4c23
- TGI (786-0 renal): 36.5 µM
- TGI (A498 renal): > 100 µM
- TGI (A549 NSCLC): > 100 µM
- TGI (ACHN renal): > 100 µM
- TGI (BT-549 breast): > 100 µM
- TGI (CAKI-1 renal): 74.5 µM
- TGI (CCRF-CEM leukemia): > 100 µM
- TGI (COLO 205 colon): > 100 µM
- TGI (DU-145 prostate): > 100 µM
- TGI (EKVX NSCLC): > 100 µM
- TGI (HCC-2998 colon): > 100 µM
- TGI (HCT-116 colon): > 100 µM
- TGI (HCT-15 colon): > 100 µM
- TGI (HL-60(TB) leukemia): > 100 µM
- TGI (HOP-62 NSCLC): 71.9 µM
- TGI (HOP-92 NSCLC): > 100 µM
- TGI (HS 578T breast): > 100 µM
- TGI (HT29 colon): > 100 µM
- TGI (IGROV1 ovarian): > 100 µM
- TGI (K-562 leukemia): > 100 µM
- TGI (KM12 colon): > 100 µM
- TGI (LOX IMVI melanoma): > 100 µM
- TGI (M14 melanoma): > 100 µM
- TGI (MCF7 breast): > 100 µM
- TGI (MDA-MB-231 breast): > 100 µM
- TGI (MDA-MB-435): 50.1 µM
- TGI (MDA-N): 47.7 µM
- TGI (MOLT-4 leukemia): > 100 µM
- TGI (NCI-H226 lung): > 100 µM
- TGI (NCI-H23 lung): > 100 µM
- TGI (NCI-H460 lung): > 100 µM
- TGI (NCI-H522 lung): 80.7 µM
- TGI (NCI/ADR-RES ovarian): > 100 µM
- TGI (OVCAR-3 ovarian): > 100 µM
- TGI (OVCAR-4 ovarian): > 100 µM
- TGI (OVCAR-5 ovarian): > 100 µM
- TGI (OVCAR-8 ovarian): > 100 µM
- TGI (PC-3 prostate): > 100 µM
- TGI (RPMI-8226 leukemia): 88.2 µM
- TGI (RXF 393 renal): > 100 µM
- TGI (SF-268 CNS): 63.4 µM
- TGI (SF-295 CNS): > 100 µM
- TGI (SK-MEL-2 melanoma): > 100 µM
- TGI (SK-MEL-28 melanoma): > 100 µM
- TGI (SK-MEL-5 melanoma): > 100 µM
- TGI (SK-OV-3 ovarian): > 100 µM
- TGI (SNB-19 CNS): 32.7 µM
- TGI (SNB-75 CNS): 46.5 µM
- TGI (SW-620 colon): > 100 µM
- TGI (TK-10 renal): > 100 µM
- TGI (U251 CNS): > 100 µM
- TGI (UACC-257 melanoma): > 100 µM
- TGI (UACC-62 melanoma): > 100 µM
- TGI (UO-31 renal): > 100 µM
